{"source": "patent US20160213680A1", "about": "“COMPOSITIONS AND METHODS USING FLUMAZENIL WITH OPIOID ANALGESICS FOR TREATING PAIN AND/OR ADDICTION, AND WITH DIVERSION AND/OR OVERDOSE MITIGATION” (SOTERIAN PHARMACEUTICALS, LLC, priority 2015, published 2016)", "key": {"[1]": {"test": "Tablet pilot studies of flumazenil tolerability", "format": "in vivo, human", "details": "tablet formulations, compared with IV flumazenil history", "text": "Note, several historical physiological ideas about IV flumazenil may be much different compared to the formulations of flumazenil used in the various pharmaceutical dosage units. […] When patients are currently prescribed opiates, such patients are instructed to avoid benzodiazepines and the pharmaceutical dosage units disclosed herein may make physicians more confident that such patients will remain compliant with that instruction."}, "[2]": {"test_system": "sedation associated with benzodiazepines (midazolam)", "format": "in vivo, human", "protocol": "Subjects were pretreated with about 10 mg flumazenil orally. After 30 minutes midazolam (a benzodiazepine) 0.3 mg was administered and repeated every 30 minutes until sedative effects were noticed by the subject or reported by the investigator. Oral flumazenil of about 10 mg was able to block midazolam for an average of 150 minutes.\nThis example study was repeated with about 30 mg flumazenil orally (2 subjects) and sublingually (3 subjects). Allowing the sublingual flumazenil treatment option was thought to avoid first pass hepatic metabolism and potentially increase Cmax (maximum [or peak] serum concentration), shorten Tmax (time at which the Cmax is observed) and is expected to increase the area under the curve for flumazenil in the serum. In this dose range study subjects were again pretreated with about 30 mg flumazenil orally or sublingually. After 30 minutes midazolam (Versed) 0.3 mg was administered and repeated every 30 minutes until sedative effects were noticed by the subject or reported by the investigator."}, "[3]": {"test_system": "patients who had been taking methadone", "test": "Example 2: conversion of methadone patients to the sublingual tablet (withdrawal, VAS pain)", "format": "in vivo, human", "details": "patients withdrawing from methadone", "protocol": "[…]. These patients took an average of 9 days to convert before methadone withdrawal was completely eliminated.\nPatients who had been taking 50 mg to 140 mg per day of methadone were first titrated down with Ultram (e.g., via 2 to 3 tablets of Ultram 50 mg administered every 6 hours) for four days. Following this titration period, the patients were given injections containing 0.3 mg buprenorphine and 60 mg torodol to see if further time was needed before the sublingual tablets comprising buprenorphine and flumazenil could be started without risk of precipitating withdrawal. […]. Stomach tightness, nausea, and restless legs were the most common complaints from these patients."}, "[4]": {"details": "in vivo, cited from earlier work"}}, "note": "Where “and” joins values, the source holds several entries; their conditions need not be identical. Equal values may be shown once. Entries after “also recorded” stand apart in the source; their conditions may differ.", "data": [{"smiles": "CCOC(=O)c1ncn2c1CN(C)C(=O)c1cc(F)ccc1-2", "note": "[flumazenil, ethyl 8-fluoro-5-methyl-6-oxo-5,6-dihydro-4H-benzo[f]imidazo[1,5-a][1,4]diazepine-3-carboxylate]", "values": [{"measurement": "anxiety, panic attacks, dysphoria, disorientation", "setting": "[1]", "value": "does not cause anxiety nor panic attacks; also recorded: no dysphoria nor disorientation"}, {"measurement": "duration of blockade from Versed", "setting": "[2]; about 3 mg IV flumazenil", "value": 60, "unit": "min"}, {"measurement": "duration of midazolam blockade / protection from sedation (average)", "setting": "[2]; about 10 mg flumazenil orally, midazolam 0.3 mg every 30 minutes", "value": 150, "unit": "min"}, {"measurement": "sedation at the 330 minute interval", "setting": "[2]; about 30 mg flumazenil orally or sublingually, all subjects", "value": "measurable (but reduced) sedation"}, {"measurement": "duration of midazolam blockade, individual subjects", "setting": "[2]; about 30 mg flumazenil orally, the 2 subjects", "value": "240 min and 270 min"}, {"measurement": "time for flumazenil to clear the serum (average)", "setting": "[2]; human, in vivo, po", "value": "about 3 hours"}, {"measurement": "effect of flumazenil on the pain and withdrawal relieving effect of buprenorphine", "setting": "[3]", "value": "noticeably enhanced"}, {"measurement": "oral and/or gastrointestinal bioavailability", "setting": "[4]; po", "value": "very low"}, {"measurement": "elimination half-life", "setting": "[4]", "value": 1.4, "unit": "h"}]}, {"smiles": "Cc1ncc2n1-c1ccc(Cl)cc1C(c1ccccc1F)=NC2", "note": "[midazolam]", "values": [{"measurement": "time to maximum sedation after IV midazolam dosing", "setting": "[2]; midazolam 0.3 mg IV", "value": 5, "unit": "min"}]}]}
